Data taken from paper PMC3946725 (Archives of toxicology, 2013).
pIC50: −log10 of the molar value.

Target: hERG cardiac potassium channel (Kv11.1) (Homo sapiens, UniProt Q12809)
Type: cell-based
Settings: hamster, cho cells

hERG cardiac potassium channel (Kv11.1), sequence (Q12809 whole entry): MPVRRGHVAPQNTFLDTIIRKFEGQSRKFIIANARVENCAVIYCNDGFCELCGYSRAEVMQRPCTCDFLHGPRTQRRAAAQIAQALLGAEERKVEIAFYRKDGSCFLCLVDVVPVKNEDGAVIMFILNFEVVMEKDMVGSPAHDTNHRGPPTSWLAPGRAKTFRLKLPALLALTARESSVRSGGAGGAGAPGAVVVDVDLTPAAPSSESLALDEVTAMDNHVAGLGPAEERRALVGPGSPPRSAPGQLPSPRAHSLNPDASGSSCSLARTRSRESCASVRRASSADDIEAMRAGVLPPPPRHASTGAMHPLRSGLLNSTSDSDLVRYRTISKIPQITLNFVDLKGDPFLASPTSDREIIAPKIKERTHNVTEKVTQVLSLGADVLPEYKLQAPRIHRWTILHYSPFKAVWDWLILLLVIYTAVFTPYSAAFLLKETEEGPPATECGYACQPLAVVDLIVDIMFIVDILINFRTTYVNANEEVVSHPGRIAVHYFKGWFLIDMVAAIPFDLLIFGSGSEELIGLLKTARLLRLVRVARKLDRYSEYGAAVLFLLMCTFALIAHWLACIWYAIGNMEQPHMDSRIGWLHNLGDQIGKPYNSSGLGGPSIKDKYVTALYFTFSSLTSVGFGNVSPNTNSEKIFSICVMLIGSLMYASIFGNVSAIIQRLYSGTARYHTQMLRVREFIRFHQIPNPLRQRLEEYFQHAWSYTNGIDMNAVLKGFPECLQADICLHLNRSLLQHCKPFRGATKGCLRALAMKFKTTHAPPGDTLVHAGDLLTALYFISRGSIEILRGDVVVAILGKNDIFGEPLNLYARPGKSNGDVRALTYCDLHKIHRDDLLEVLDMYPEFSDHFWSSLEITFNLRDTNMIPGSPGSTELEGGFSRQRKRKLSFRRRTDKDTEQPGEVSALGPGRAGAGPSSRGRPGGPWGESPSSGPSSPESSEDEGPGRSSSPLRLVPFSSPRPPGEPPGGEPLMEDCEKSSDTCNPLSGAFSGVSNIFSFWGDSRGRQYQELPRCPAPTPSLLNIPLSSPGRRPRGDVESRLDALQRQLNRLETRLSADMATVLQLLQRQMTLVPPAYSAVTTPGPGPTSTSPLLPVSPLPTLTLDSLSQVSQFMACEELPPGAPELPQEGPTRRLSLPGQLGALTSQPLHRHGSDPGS

With AZA-2 the pIC50 was 5.66.
